Earlier results, collected in patent publication US20140271465A1, “MATRIX METALLOPROTEASE (MMP) TARGETED AGENTS FOR IMAGING AND THERAPY” (Mallinckrodt LLC, priority 2013, published 2014).

Tests used:
rhMMP14 = target: T1, rhMMP14 (Homo sapiens, UniProt P50281); details: control compound, vendor description
T1 construct: purchased R&D Systems 918-MP

rhMMP2 = target: T2, rhMMP2 (Homo sapiens, UniProt P08253); details: control compound, vendor description
T2 construct: purchased R&D Systems 902-MP
T2 sequence (P08253 110-660): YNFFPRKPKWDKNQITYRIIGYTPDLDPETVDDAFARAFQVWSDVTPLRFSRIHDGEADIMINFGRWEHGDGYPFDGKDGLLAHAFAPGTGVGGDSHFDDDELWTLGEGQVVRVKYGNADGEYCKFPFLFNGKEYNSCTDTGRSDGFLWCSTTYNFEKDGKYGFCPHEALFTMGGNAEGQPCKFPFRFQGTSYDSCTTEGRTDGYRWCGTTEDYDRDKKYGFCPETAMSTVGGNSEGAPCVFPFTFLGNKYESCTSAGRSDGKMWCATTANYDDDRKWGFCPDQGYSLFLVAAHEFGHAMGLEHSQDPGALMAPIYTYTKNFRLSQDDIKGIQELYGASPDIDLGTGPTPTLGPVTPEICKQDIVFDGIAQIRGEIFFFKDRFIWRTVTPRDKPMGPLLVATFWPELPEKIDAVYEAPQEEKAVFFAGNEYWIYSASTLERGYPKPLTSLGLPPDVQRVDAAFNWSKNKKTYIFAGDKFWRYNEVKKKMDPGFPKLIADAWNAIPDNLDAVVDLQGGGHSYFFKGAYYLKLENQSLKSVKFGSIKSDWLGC

Inhibition of MMP-14 (control description) (rhMMP14) | Inhibition of MMP-2 (control description) (rhMMP2) | SMILES
poor inhibitor for MMP-14 | selective MMP-2 inhibitor | CC(C)ON(CC(=O)NO)S(=O)(=O)c1ccc(-c2ccccc2)cc1 [ARP100]
low nM levels | low nM levels | CNC(=O)[C@H](Cc1ccccc1)NC(=O)[C@H](CC(C)C)[C@H](CSc1cccs1)C(=O)NO [Batimastat]
